Laboratory results taken from US9598434B2, “Benzazepine compound” (Astellas Pharma Inc., priority 2010, dated 2017).
Read-outs that look alike come from different tables or passages of the source.

Legend:
human 5-HT2C receptor = biological target: T1, human 5-HT2C receptor (Homo sapiens, UniProt P28335); experiment: Evaluation of 5-HT2C receptor agonist activity (intracellular calcium increase, FLIPR, CHO cells stably expressing the receptor); type: cell-based; settings: for Emax: CHO, read-out: 5-HT2C agonist activity Emax
T1 construct: expressed in transfected cells
T1 sequence (P28335 33-458): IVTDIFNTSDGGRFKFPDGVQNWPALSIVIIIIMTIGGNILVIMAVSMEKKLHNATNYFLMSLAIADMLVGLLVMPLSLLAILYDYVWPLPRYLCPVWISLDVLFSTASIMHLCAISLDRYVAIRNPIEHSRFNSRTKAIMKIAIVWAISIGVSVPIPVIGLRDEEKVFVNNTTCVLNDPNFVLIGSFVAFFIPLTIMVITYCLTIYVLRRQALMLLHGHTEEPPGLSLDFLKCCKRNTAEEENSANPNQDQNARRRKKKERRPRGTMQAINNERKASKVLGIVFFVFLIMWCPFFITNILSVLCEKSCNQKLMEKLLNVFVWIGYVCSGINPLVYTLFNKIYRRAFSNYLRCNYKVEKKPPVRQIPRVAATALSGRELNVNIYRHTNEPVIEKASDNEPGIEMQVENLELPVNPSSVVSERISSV
Experimental: The agonist activity of the compound of the formula (I) on the 5-HT2C receptor was confirmed by the method shown below.
The human 5-HT2C receptor agonist activity was evaluated by measuring the increase of the ligand-dependent intracellular calcium concentration. CHO cells which stably expressing a human 5-HT2C receptor were used. The receptor-expressing cells were prepared by transfecting the genes of the human 5-HT2C receptor (Accession numbers: AF498983 (5-HT2C)) into CHO cells (dihydrofolic acid-deficient strain, DS Pharma Biomedical Co., Ltd.)) using a pEF-BOS vector (Nucleic Acids Research, vol. 18, No. 17). After transcription, the 5-HT2C is known to be subjected to RNA editing to cause differences in three kinds of amino acids, resulting in fourteen receptor isoforms. Among them, cells stably expressing an INI type of 5-HT2C receptor which had not been subjected to editing were used. Cells used for evaluation were cultured in a 10% fetal bovine serum (FBS)-containing medium (trade name: α-MEM, Invitrogen) at 37° C. and 5% carbon dioxide. On the day before the evaluation, the cells were suspended in a serum-free medium (trade name: CD-CHO, Invitrogen) containing 8 mM L-glutamine (trade name: L-glutamine 200 mM, Invitrogen, added to the medium at a final concentration of 8 mM) and dispensed into a 96-well poly-D-lysine-coated plate (trade name: Biocoat PDL96W Black/Clear, Japan Becton, Dickinson and Company)) at 4×10^4 cells/well and cultured at 37° C. and 5% carbon dioxide overnight. A solution including a washing solution (mixture of Hank's Balanced Salt Solution (HBSS)-sodium hydroxide (NaOH), 20 mM 2-[4-(2-hydroxyethyl)-1-piperazinyl]ethanesulfonic acid (HEPES)-sodium hydroxide (NaOH), 2.5 mM probenecid, and 0.1% bovine serum albumin (BSA)), and a 4 μM fluorescent reagent (trade name: Fluo4-AM, Dojindo Co., Ltd.) was used as a loading buffer and the medium of the 96-well plate which had been cultured overnight was replaced with a loading buffer. After leaving to stand (with light-shielding) at room temperature for 3 hours, the cells were washed with a plate washer (trade name: ELx405, BioTek Instruments, Inc.) in which a washing solution had been set up. The plates of the washed cells were set up in a system for measuring a calcium (Ca) concentration in a cell (trade name: FLIPR, Molecular Devices, Inc.). In this device, a test compound that had been dissolved in dimethyl sulfoxide and diluted in the washing solution at a predetermined concentration was added and set up to measure a change in the Ca concentrations in a cell. The difference between a maximum value and a minimum value in the change of the intracellular Ca concentration was determined and kept as measurement data.
Taking the maximum reaction of the 5-HT (agonist action with addition of 5-HT 10 μM) as 100% and the reaction of a solvent alone as 0%, the efficacy (Emax (%)) and potency (EC50 (nM)) of the present invention compound to the maximum reaction of the 5-HT were calculated with a logistic regression method.

[1] = test system: Hartley female guinea pigs; experiment: Measurement of external urethral sphincter electromyography; type: in vivo, guinea pig; settings: Cavia porcellus, read-out: external urethral sphincter electromyography activity
Source text: The activating action of the compound of the formula (I) on the urethral sphincter electromyography was confirmed with the method shown below.
Hartley female guinea pigs with a body weight of 250 to 350 g were anesthetized with urethane (Sigma). The guinea pigs were fixed in a supine position and catheters (PE-50; Clay Adams) for administration of test compounds were inserted into the jugular vein. Further, a catheters (PE-160; Clay Adams), for an infusion of physiological saline into bladder and measurement of the intravesical pressure, were inserted through an incision into the dome of the bladder. Further, in order to measure the external urethral sphincter electromyography, two electrodes were inserted into both the left and right sides of the urethral opening to the urethral sphincter. The electrodes for measuring base voltages were placed under the skin of the hind part. The bladder catheter was branched over a three-way stopcock, and one was connected with a 50 mL syringe (Terumo) fixed to an infusion pump (Terumo). The other was connected to a pressure transducer (DX-100; Nihon Kohden Corporation) to transfer the signal of the transducer through an amplifier (AP-630G; Nihon Kohden Corporation) and a data acquisition system (PowerLab; AD Instruments) to a computer and record on a hard disk. The electrodes for electromyography measurement were connected to a control unit (JB-101J; Nihon Kohden Corporation) to transfer the signal through an amplifier (AP-651J; Nihon Kohden Corporation) and a data acquisition system (PowerLab; AD Instruments) to a computer and record on a hard disk. Further, the data were analyzed on the computer using a software (Chart; AD Instruments). […] The electromyography activity was analyzed by taking the lowest potential amplitude as a standard during the stabilization period and using the firing frequency over the standard amplitude as an indicator. At internals between the respective urinations (urine filling phase), the activity of the urethral sphincter electromyography was analyzed and its average value was calculated. After the stabilization period, the solvent and the test compound were administered at an increased dose at an interval of 40 minutes through the catheter placed into the jugular vein. The urethral sphincter electromyography activity after the administration of the solvent was taken as 100% and the urethral sphincter electromyography activity after the administration of the test compound was denoted as a percentage (%) of the electromyography activity after the administration of the solvent.

[2] = CHO cells stably expressing INI type human 5-HT2C receptor, intracellular Ca increase, logistic regression, read-out: 5-HT2C agonist activity EC50
[3] = intravenous administration at 3 mg/kg, urethane-anesthetized guinea pigs, activity after solvent taken as 100%

Compound	EC50 (human 5-HT2C receptor; [2]) [nM]	Emax (human 5-HT2C receptor) [%]	response vs control in vivo at 3 mg/kg [1, 3] [%]	melting point [°C]	EC50 (human 5-HT2C receptor) [nM]	response vs control in vivo at 3 mg/kg ([1]; iv) [%]
CC(C)CN1CCCc2cc3c(cc21)CCNCC3 [Example 38]	2.1	94	≥ 200	–	–	–
COCCCN1CCOc2cc3c(cc21)CCNCC3.O=C(O)/C=C/C(=O)O [Example 59]	7.1	108	≥ 200	141 to 145	–	–
COCCN1CCCc2cc3c(c(C4CC4)c21)CCNCC3 [Example 81]	0.84	114	≥ 200	–	–	–
COCCN1CCOc2cc3c(c(C4CC4)c21)CCNCC3 [Example 88]	1.1	105	≥ 200	–	–	–
CCOCCN1CCOc2cc3c(c(C4CC4)c21)CCNCC3.O=C(O)/C=C/C(=O)O [Example 104]	1.1	107	≥ 200	140 to 145	–	–
COCCCN1CCOc2cc3c(c(C4CC4)c21)CCNCC3.O=C(O)/C=C/C(=O)O [Example 106]	1.1	112	≥ 200	169 to 171	–	–
CCOC(=O)N1CCCc2cc3c(c(C)c21)CCNCC3.O=C(O)C(=O)O [Example 108]	5.9	106	–	185 to 186	–	–
COCCN1CCOc2cc3c(c(Br)c21)CCNCC3 [Example 135]	2.9	112	≥ 200	–	–	–
FCCCN1CCOc2cc3c(c(C4CC4)c21)CCNCC3.O=C(O)/C=C/C(=O)O [Example 141]	–	100	–	144 to 147	0.36	≥ 200
c1c2c(c(C3CC3)c3c1OCCN3C[C@@H]1CCCO1)CCNCC2 [Example 215]	1	96	–	154 to 156	–	≥ 200
CO[C@H](C)CN1CCOc2cc3c(c(C4CC4)c21)CCNCC3.O=C(O)/C=C/C(=O)O [Example 243]	0.53	96	≥ 200	133 to 136	–	–
Clc1cccc(CN2CCOc3cc4c(c(C5CC5)c32)CCNCC4)c1.O=C(O)CCC(=O)O [Example 258]	1.9	97	≥ 200	139 to 141	–	–
O=C(O)/C=C/C(=O)O.c1c2c(c(C3CC3)c3c1OCCN3CC1CCCOC1)CCNCC2 (centres unmarked) [Example 263]	2.8	96	≥ 200	186 to 189	–	–
Fc1ccccc1CN1CCOc2cc3c(c(C4CC4)c21)CCNCC3.O=C(O)/C=C/C(=O)O [Example 265]	1.3	97	≥ 200	133 to 136	–	–
O=C(O)/C=C/C(=O)O.c1ccc2c(c1)OCC(CN1CCOc3cc4c(c(C5CC5)c31)CCNCC4)O2 (centres unmarked) [Example 267]	0.51	99	≥ 200	179 to 182	–	–
c1ccc(OCCN2CCOc3cc4c(c(C5CC5)c32)CCNCC4)cc1 [Example 268]	0.92	99	≥ 200	–	–	–
Cc1ccccc1CN1CCOc2cc3c(c(C4CC4)c21)CCNCC3.O=C(O)/C=C/C(=O)O [Example 276]	6.4	104	≥ 200	163 to 166	–	–
Cc1cccc(CN2CCOc3cc4c(c(C5CC5)c32)CCNCC4)c1.O=C(O)/C=C/C(=O)O [Example 277]	2.3	95	≥ 200	192 to 195	–	–
Fc1ccc(F)c(CN2CCOc3cc4c(c(C5CC5)c32)CCNCC4)c1 [Example 283]	1.7	90	≥ 200	–	–	–
CO[C@H](CF)CN1CCOc2cc3c(c(C4CC4)c21)CCNCC3 [Example 287]	1	97	≥ 200	–	–	–
COCc1cccc(CN2CCOc3cc4c(c(C5CC5)c32)CCNCC4)c1.O=C(O)/C=C/C(=O)O [Example 288]	0.64	90	≥ 200	190 to 193	–	–
Fc1ccc(Cl)cc1CN1CCOc2cc3c(c(C4CC4)c21)CCNCC3.O=C(O)/C=C/C(=O)O [Example 290]	3.8	93	≥ 200	165 to 168	–	–
O=C(O)/C=C/C(=O)O.c1cc2c(cc1CN1CCOc3cc4c(c(C5CC5)c31)CCNCC4)OCCO2 [Example 291]	1.2	93	≥ 200	165 to 168	–	–
COCCN1c2c(cc3c(c2C2CC2)CCNCC3)OC[C@@H]1C [Example 292]	0.65	93	≥ 200	–	–	–
N#Cc1cc(F)c(OCCN2CCOc3cc4c(c(C5CC5)c32)CCNCC4)c(F)c1 [Example 297]	0.71	96	≥ 200	–	–	–
COc1cccc(CN2CCOc3cc4c(c(C5CC5)c32)CCNCC4)c1 [Example 299]	1	98	≥ 200	–	–	–
Fc1cc(F)cc(CN2CCOc3cc4c(c(C5CC5)c32)CCNCC4)c1.O=C(O)/C=C/C(=O)O [Example 313]	4.2	97	≥ 200	191 to 194	–	–
CCO[C@H](C)CN1CCOc2cc3c(c(C4CC4)c21)CCNCC3.O=C(O)/C=C/C(=O)O [Example 315]	2.8	108	≥ 200	157 to 160	–	–
